# US20160378912A1, “STRUCTURE-BASED MODELING AND TARGET-SELECTIVITY PREDICTION” (EPIGENETX, LLC, priority 2013, published 2016)
# Assays:
# HDAC isoforms = test: HDAC inhibition profiled over several HDAC isoforms (experimental); type: biochemical, human
# HDLP = conditions: CTS; cited from earlier work
# HIV-RT Y188L = HIV-RT Y188L (Human immunodeficiency virus type 1 group M subtype B, UniProt P04585, Y775L); conditions: Rotili et al. 2012; cited from earlier work
# HIV-RT K103N = HIV-RT K103N (Human immunodeficiency virus type 1 group M subtype B, UniProt P04585, K690N); conditions: Rotili et al. 2012; cited from earlier work
# HIV-RT L100I = HIV-RT L100I (Human immunodeficiency virus type 1 group M subtype B, UniProt P04585, L687I); conditions: Rotili et al. 2012; cited from earlier work
# HIV-RT V106A = HIV-RT V106A (Human immunodeficiency virus type 1 group M subtype B, UniProt P04585, V693A); conditions: Rotili et al. 2012; cited from earlier work
# HIV-RT WT = HIV-RT WT (Human immunodeficiency virus type 1 group M subtype B, UniProt P04585); conditions: Rotili et al. 2012; cited from earlier work
# HIV-RT Y181I = HIV-RT Y181I (Human immunodeficiency virus type 1 group M subtype B, UniProt P04585, Y768I); conditions: Rotili et al. 2012; cited from earlier work
# HDAC9 = HDAC9 (Homo sapiens, UniProt Q9UKV0); conditions: MTS inhibitors; cited from earlier work
# HDAC7 = biological target: T1, HDAC7 (Homo sapiens, UniProt Q8WUI4); conditions: MTS inhibitors; cited from earlier work
# T1 sequence (Q8WUI4 1-952): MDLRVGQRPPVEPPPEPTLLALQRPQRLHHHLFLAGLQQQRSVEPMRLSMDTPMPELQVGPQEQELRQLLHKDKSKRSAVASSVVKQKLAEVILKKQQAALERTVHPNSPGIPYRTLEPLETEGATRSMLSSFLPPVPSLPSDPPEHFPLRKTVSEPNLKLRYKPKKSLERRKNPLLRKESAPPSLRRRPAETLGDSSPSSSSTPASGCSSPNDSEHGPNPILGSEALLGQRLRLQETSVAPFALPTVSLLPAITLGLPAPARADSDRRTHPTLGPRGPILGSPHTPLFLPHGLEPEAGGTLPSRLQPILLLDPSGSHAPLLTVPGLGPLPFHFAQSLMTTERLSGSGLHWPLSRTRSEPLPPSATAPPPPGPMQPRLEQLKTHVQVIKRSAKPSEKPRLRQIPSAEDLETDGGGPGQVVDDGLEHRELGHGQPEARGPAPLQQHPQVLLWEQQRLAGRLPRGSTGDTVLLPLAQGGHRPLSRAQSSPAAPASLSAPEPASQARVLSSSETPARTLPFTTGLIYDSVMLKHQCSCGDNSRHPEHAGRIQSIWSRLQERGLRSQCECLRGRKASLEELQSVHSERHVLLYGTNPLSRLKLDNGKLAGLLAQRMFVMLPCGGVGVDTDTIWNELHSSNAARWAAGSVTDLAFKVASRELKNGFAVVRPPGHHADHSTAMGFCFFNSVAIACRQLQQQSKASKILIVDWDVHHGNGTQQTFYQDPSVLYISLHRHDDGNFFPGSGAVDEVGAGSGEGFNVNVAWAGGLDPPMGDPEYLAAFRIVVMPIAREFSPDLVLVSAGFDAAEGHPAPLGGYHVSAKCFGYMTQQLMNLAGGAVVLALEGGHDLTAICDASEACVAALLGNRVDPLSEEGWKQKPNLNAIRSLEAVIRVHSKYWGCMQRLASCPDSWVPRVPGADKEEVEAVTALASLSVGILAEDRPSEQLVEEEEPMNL
# HDAC4 = HDAC4 (Homo sapiens, UniProt P56524); conditions: MTS inhibitors; cited from earlier work
# HDAC5 = HDAC5 (Homo sapiens, UniProt Q9UQL6); conditions: MTS inhibitors, HDAC5; cited from earlier work
# Chain of HDAC5 (Q9UQL6 whole entry, canonical isoform): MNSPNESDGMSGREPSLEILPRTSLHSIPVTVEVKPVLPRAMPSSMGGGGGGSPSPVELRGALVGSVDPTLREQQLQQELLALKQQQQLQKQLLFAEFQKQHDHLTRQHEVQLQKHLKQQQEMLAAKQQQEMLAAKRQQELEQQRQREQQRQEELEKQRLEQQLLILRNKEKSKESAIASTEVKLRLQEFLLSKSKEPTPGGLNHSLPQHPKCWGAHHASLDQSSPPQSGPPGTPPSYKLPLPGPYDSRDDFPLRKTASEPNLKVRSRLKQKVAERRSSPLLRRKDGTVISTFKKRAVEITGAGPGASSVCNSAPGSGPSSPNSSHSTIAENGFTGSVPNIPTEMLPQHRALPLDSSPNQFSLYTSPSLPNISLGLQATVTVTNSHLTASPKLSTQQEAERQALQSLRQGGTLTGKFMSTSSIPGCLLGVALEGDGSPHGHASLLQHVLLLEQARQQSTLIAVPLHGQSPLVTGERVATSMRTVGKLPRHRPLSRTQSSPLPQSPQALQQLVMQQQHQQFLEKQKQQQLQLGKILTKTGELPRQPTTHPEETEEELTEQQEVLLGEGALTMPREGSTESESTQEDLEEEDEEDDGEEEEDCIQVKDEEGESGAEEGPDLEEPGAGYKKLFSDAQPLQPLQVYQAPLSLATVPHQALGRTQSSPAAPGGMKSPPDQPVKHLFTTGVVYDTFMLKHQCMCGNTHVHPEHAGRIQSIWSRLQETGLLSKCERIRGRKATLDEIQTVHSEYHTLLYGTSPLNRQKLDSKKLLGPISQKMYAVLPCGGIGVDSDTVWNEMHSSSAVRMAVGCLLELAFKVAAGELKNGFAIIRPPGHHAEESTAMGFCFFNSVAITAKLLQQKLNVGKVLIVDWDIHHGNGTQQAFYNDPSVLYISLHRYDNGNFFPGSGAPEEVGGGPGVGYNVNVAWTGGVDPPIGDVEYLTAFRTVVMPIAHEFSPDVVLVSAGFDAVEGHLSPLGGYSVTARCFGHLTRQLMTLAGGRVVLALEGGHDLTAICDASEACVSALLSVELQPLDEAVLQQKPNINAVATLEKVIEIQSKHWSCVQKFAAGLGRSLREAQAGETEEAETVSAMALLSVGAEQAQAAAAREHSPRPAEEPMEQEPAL
# Chain of HDAC4 (P56524 whole entry): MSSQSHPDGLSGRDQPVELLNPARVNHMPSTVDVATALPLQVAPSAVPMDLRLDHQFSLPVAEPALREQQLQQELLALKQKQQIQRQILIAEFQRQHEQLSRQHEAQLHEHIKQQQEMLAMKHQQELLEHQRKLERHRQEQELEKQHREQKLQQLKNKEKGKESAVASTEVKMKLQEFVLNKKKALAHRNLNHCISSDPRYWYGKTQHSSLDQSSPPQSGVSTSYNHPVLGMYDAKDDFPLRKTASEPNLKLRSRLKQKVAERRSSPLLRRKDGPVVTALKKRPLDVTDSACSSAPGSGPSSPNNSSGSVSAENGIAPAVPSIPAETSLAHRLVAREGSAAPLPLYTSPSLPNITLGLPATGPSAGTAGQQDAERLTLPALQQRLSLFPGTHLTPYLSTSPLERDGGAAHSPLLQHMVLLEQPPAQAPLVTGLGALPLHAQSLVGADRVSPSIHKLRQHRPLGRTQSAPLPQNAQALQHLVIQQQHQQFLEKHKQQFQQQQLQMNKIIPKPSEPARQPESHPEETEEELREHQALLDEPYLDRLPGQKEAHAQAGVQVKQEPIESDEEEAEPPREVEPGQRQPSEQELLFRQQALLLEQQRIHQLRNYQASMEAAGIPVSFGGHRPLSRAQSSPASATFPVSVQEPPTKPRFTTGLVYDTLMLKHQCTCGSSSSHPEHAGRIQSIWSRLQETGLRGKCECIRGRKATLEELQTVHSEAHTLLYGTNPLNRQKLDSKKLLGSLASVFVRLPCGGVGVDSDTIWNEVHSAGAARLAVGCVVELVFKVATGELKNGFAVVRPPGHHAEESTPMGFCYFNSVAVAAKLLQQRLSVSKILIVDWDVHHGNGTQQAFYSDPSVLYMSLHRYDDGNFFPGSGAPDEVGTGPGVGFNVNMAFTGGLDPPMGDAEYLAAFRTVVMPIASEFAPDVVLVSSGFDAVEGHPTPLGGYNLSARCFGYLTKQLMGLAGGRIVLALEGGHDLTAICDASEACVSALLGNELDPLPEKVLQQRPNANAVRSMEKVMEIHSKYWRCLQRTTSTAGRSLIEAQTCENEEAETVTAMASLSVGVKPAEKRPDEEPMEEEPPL
# Chain of HDAC9 (Q9UKV0 whole entry): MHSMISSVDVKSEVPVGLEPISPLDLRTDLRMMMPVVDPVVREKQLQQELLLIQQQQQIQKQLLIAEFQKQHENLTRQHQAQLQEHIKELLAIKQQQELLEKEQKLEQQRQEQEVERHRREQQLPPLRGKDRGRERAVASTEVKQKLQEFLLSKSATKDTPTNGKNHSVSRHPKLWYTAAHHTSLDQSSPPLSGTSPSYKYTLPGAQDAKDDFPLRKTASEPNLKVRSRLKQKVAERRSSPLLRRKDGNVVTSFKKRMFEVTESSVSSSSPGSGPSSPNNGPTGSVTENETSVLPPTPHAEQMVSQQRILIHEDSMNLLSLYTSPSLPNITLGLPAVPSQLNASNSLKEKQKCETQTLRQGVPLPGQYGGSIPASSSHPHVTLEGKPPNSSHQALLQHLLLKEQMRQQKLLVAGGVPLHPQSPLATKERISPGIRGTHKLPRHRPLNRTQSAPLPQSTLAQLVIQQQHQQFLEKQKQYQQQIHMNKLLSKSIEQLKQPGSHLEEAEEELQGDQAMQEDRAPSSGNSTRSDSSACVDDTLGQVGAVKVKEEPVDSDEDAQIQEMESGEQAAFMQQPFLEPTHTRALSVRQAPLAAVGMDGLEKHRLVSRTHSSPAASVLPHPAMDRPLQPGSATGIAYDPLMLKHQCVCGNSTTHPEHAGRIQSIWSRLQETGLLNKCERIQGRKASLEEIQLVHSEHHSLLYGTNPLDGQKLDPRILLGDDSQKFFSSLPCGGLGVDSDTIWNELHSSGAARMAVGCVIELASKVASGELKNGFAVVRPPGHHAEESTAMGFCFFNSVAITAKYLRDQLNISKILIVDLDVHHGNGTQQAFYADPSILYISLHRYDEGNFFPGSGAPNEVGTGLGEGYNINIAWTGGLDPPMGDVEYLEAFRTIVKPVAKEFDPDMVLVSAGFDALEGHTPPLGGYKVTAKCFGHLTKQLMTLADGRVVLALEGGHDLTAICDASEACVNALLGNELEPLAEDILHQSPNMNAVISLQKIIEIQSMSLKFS
SMILES,Bioactivity range (ΔpIC50) DpIC50 (HDAC isoforms; range of pIC50 over the profiled HDAC isoforms),Experimental pIC50 (HDLP),IC50 (HDLP),"Experimental activity (pKi), Exp (HIV-RT Y188L)","Experimental activity (pKi), Exp (HIV-RT K103N)","Experimental activity (pKi), Exp (HIV-RT L100I)","Experimental activity (pKi), Exp (HIV-RT V106A)","Experimental activity (pKi), Exp (HIV-RT WT)","Experimental activity (pKi), Exp (HIV-RT Y181I)",Exp. pIC50 (HDAC9),Exp. pIC50 (HDAC7),"average pIC50 value, Exp. (HDAC isoforms; average over HDAC isoforms, MTS)",Exp. pIC50 (HDAC4),Exp. pIC50 (HDAC5)
"CC(/C=C/C(=O)NO)=C\[C@H](C)C(=O)c1ccc(N(C)C)cc1 (stereo in doubt) [TSA, 7-(4-(Dimethylamino)phenyl)-N-hydroxy-4,6-dimethyl-7-oxo-2,4-heptadienamide]",2.34,6.40,400 nM,–,–,–,–,–,–,–,–,–,–,–
C/C=C/N(C)c1nc([C@H](C)c2c(F)cccc2F)c(C)c(=O)[nH]1 [(R)-MC1501],–,–,–,6.71,7.02,7.02,8.52,8.70,6.35,–,–,–,–,–
Cc1c(N)nc(Nc2ccc(C#N)cc2)nc1[C@H](C)c1c(F)cccc1F [(R)-MC2082],–,–,–,8.10,8.52,8.10,9.52,6.81,6.12,–,–,–,–,–
C/C=C/N(C)c1nc([C@@H](C)c2c(F)cccc2F)c(C)c(=O)[nH]1 [(S)-MC1501],–,–,–,4.40,6.01,4.40,6.45,6.93,4.40,–,–,–,–,–
Cc1c(N)nc(Nc2ccc(C#N)cc2)nc1[C@@H](C)c1c(F)cccc1F [(S)-MC2082],–,–,–,4.40,7.19,6.74,6.62,4.52,6.29,–,–,–,–,–
O=C(O)CCCc1ccccc1 [MCL-3],–,–,–,–,–,–,–,–,–,2.70,2.70,3.40,2.70,2.70
